In patent US20250230193A1, “CYCLIC COMPOUND HAVING SELECTIVE KRAS INHIBITORY EFFECT ON HRAS AND NRAS” (CHUGAI SEIYAKU KABUSHIKI KAISHA, priority 2022, published 2025):
Where a SMILES comes first, the peptide text is derived from it. Bridges are numbered along the chain shown (N, C = ends). [ ]: non-standard residue; d: D form. The star is where a group is joined. hPhe(3,5-F2-4-CF3) = N[C@@H](CCc1cc(F)c(C(F)(F)F)c(F)c1)C(=O)O; NPrPhe(4-CF3) = CCCN[C@@H](Cc1ccc(C(F)(F)F)cc1)C(=O)O; NMeAbu(4,4,4-F3) = CN[C@@H](CC(F)(F)F)C(=O)O; NMeGly(cPent) = CN[C@H](C(=O)O)C1CCCC1; Ac4c(3,3-F2) = NC1(C(=O)O)CC(F)(F)C1; Nva(3-Et) = CCC(CC)[C@H](N)C(=O)O; NMeD = CN[C@@H](CC(=O)O)C(=O)O; Ac4c(3-oxa) = NC1(C(=O)O)COC1; NMeL = CN[C@@H](CC(C)C)C(=O)O; Iva = CC[C@](C)(N)C(=O)O; Morpholide = C1CN(*)CCO1; Ac5c = NC1(C(=O)O)CCCC1; Aze = O=C(O)[C@@H]1CCN1; Sar = CNCC(=O)O

What was measured:
[1] = biological target: GDP-bound NRAS wild-type protein (Homo sapiens, UniProt P01111); assay: Binding to NRAS by surface plasmon resonance (SPR), Single Cycle Kinetics; conditions: SPR; for NRAS/KRAS (ratio of KD value with respect to NRAS to KD value with respect to KRAS): GDP-bound NRAS wild-type vs GDP-bound KRAS wild-type
Chain of GDP-bound NRAS wild-type protein (P01111 whole entry): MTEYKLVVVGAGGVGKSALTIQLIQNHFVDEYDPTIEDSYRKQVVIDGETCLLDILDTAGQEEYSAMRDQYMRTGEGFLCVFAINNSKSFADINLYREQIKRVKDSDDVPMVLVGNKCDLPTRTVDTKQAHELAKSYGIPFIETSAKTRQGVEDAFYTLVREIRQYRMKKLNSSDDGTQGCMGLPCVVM

[2] = biological target: GDP-bound HRAS wild-type protein (Homo sapiens, UniProt P01112); assay: Binding to HRAS by surface plasmon resonance (SPR), Single Cycle Kinetics; conditions: SPR; for HRAS/KRAS (ratio of KD value with respect to HRAS to KD value with respect to KRAS): GDP-bound HRAS wild-type vs GDP-bound KRAS wild-type
Chain of GDP-bound HRAS wild-type protein (P01112 whole entry): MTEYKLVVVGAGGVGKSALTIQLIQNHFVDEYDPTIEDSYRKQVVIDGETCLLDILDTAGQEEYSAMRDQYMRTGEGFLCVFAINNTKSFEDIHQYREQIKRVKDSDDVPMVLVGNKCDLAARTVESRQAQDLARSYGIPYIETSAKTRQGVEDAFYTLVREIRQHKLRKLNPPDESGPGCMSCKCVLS

SMILES: CCCN1C(=O)[C@@H]2CCN2C(=O)CN(C)C(=O)[C@H]([C@@H](C)CC)NC(=O)[C@H](CC(C)C)N(C)C(=O)C[C@@H](C(=O)N2CCOCC2)N(C)C(=O)[C@H](C2CCCC2)N(C)C(=O)C2(COC2)NC(=O)[C@@H]2CCCN2C(=O)[C@H](CCc2cc(F)c(C(F)(F)F)c(F)c2)NC(=O)CN(C)C(=O)[C@@H]1Cc1ccc(C(F)(F)F)cc1 [PP0801] ([NMeL]I[Sar][Aze][NPrPhe(4-CF3)][Sar][hPhe(3,5-F2-4-CF3)]P[Ac4c(3-oxa)][NMeGly(cPent)][NMeD]-Morpholide; lactam N-11)
- NRAS/KRAS (ratio of KD value with respect to GDP-bound NRAS wild-type protein to KD value with respect to KRAS) [1]: C (A compound having a KD ratio of 0.1 or more and less than 3 is denoted as C)
- HRAS/KRAS (ratio of KD value with respect to GDP-bound HRAS wild-type protein to KD value with respect to KRAS) [2]: B (a compound having 3 or more and less than 10 is denoted as B)

SMILES: CCCN1C(=O)[C@@H]2CCN2C(=O)CN(C)C(=O)[C@H]([C@@H](C)CC)NC(=O)[C@H](CC(C)C)N(C)C(=O)C[C@@H](C(=O)N2CCOCC2)N(C)C(=O)[C@H](C2CCCC2)N(C)C(=O)C2(CC(F)(F)C2)NC(=O)[C@@H]2CCCN2C(=O)[C@H](CCc2cc(F)c(C(F)(F)F)c(F)c2)NC(=O)CN(C)C(=O)[C@@H]1Cc1ccc(C(F)(F)F)cc1 [PP0802] ([NMeL]I[Sar][Aze][NPrPhe(4-CF3)][Sar][hPhe(3,5-F2-4-CF3)]P[Ac4c(3,3-F2)][NMeGly(cPent)][NMeD]-Morpholide; lactam N-11)
- NRAS/KRAS (ratio of KD value with respect to GDP-bound NRAS wild-type protein to KD value with respect to KRAS) [1]: C (A compound having a KD ratio of 0.1 or more and less than 3 is denoted as C)
- HRAS/KRAS (ratio of KD value with respect to GDP-bound HRAS wild-type protein to KD value with respect to KRAS) [2]: B (a compound having 3 or more and less than 10 is denoted as B)

SMILES: CCCN1C(=O)[C@@H]2CCN2C(=O)CN(C)C(=O)[C@H]([C@@H](C)CC)NC(=O)[C@H](CC(C)C)N(C)C(=O)C[C@@H](C(=O)N2CCOCC2)N(C)C(=O)[C@H](CC(F)(F)F)N(C)C(=O)C2(CCCC2)NC(=O)[C@@H]2CCCN2C(=O)[C@H](CCc2cc(F)c(C(F)(F)F)c(F)c2)NC(=O)CN(C)C(=O)[C@@H]1Cc1ccc(C(F)(F)F)cc1 [PP0803] ([NMeL]I[Sar][Aze][NPrPhe(4-CF3)][Sar][hPhe(3,5-F2-4-CF3)]P[Ac5c][NMeAbu(4,4,4-F3)][NMeD]-Morpholide; lactam N-11)
- NRAS/KRAS (ratio of KD value with respect to GDP-bound NRAS wild-type protein to KD value with respect to KRAS) [1]: C (A compound having a KD ratio of 0.1 or more and less than 3 is denoted as C)
- HRAS/KRAS (ratio of KD value with respect to GDP-bound HRAS wild-type protein to KD value with respect to KRAS) [2]: B (a compound having 3 or more and less than 10 is denoted as B)

SMILES: CCCN1C(=O)[C@@H]2CCN2C(=O)CN(C)C(=O)[C@H](C(CC)CC)NC(=O)[C@H](CC(C)C)N(C)C(=O)C[C@@H](C(=O)N2CCOCC2)N(C)C(=O)[C@H](C2CCCC2)N(C)C(=O)C2(CCCC2)NC(=O)[C@@H]2CCCN2C(=O)[C@H](CCc2cc(F)c(C(F)(F)F)c(F)c2)NC(=O)CN(C)C(=O)[C@@H]1Cc1ccc(C(F)(F)F)cc1 [PP0804] ([NMeL][Nva(3-Et)][Sar][Aze][NPrPhe(4-CF3)][Sar][hPhe(3,5-F2-4-CF3)]P[Ac5c][NMeGly(cPent)][NMeD]-Morpholide; lactam N-11)
- NRAS/KRAS (ratio of KD value with respect to GDP-bound NRAS wild-type protein to KD value with respect to KRAS) [1]: C (A compound having a KD ratio of 0.1 or more and less than 3 is denoted as C)
- HRAS/KRAS (ratio of KD value with respect to GDP-bound HRAS wild-type protein to KD value with respect to KRAS) [2]: B (a compound having 3 or more and less than 10 is denoted as B)

SMILES: CCCN1C(=O)CN(C)C(=O)CN(C)C(=O)[C@H]([C@@H](C)CC)NC(=O)[C@H](CC(C)C)N(C)C(=O)C[C@@H](C(=O)N(C)C)N(C)C(=O)[C@H](C2CCCC2)N(C)C(=O)[C@](C)(CC)NC(=O)[C@@H]2CCCN2C(=O)[C@H](CCc2cc(F)c(C(F)(F)F)c(F)c2)NC(=O)CN(C)C(=O)[C@@H]1Cc1ccc(C(F)(F)F)cc1 [PP0805] ([NMeL]I[Sar][Sar][NPrPhe(4-CF3)][Sar][hPhe(3,5-F2-4-CF3)]P[Iva][NMeGly(cPent)][NMeD]-NMe2; lactam N-11)
- NRAS/KRAS (ratio of KD value with respect to GDP-bound NRAS wild-type protein to KD value with respect to KRAS) [1]: B (a compound having 3 or more and less than 10 is denoted as B)
- HRAS/KRAS (ratio of KD value with respect to GDP-bound HRAS wild-type protein to KD value with respect to KRAS) [2]: C (A compound having a KD ratio of 0.1 or more and less than 3 is denoted as C)

SMILES: CCO[C@@H]1C[C@H]2C(=O)NC3(CCC3)C(=O)N(C)[C@@H](C3CCCC3)C(=O)N(C)[C@H](C(=O)N3CCOCC3)CC(=O)N(C)[C@@H](CC(C)C)C(=O)N[C@@H]([C@H](C)CC)C(=O)N(C)CC(=O)N(C)[C@H]3CCCCN(C3=O)[C@@H](Cc3ccc(C(F)(F)F)cc3)C(=O)N(C)CC(=O)N[C@@H](CCc3cc(F)c(C(F)(F)F)c(F)c3)C(=O)N2C1 [PP0806]
- NRAS/KRAS (ratio of KD value with respect to GDP-bound NRAS wild-type protein to KD value with respect to KRAS) [1]: B (a compound having 3 or more and less than 10 is denoted as B)
- HRAS/KRAS (ratio of KD value with respect to GDP-bound HRAS wild-type protein to KD value with respect to KRAS) [2]: B (a compound having 3 or more and less than 10 is denoted as B)

SMILES: CCO[C@@H]1C[C@H]2C(=O)NC3(CCC3)C(=O)N(C)[C@@H](C3CCCC3)C(=O)N(C)[C@H](C(=O)N3CCOCC3)CC(=O)N(C)[C@@H](CC(C)C)C(=O)N[C@@H](C3CC(F)(F)C3)C(=O)N(C)CC(=O)N(C)[C@H]3CCCCN(C3=O)[C@@H](Cc3ccc(C(F)(F)F)cc3)C(=O)N(C)CC(=O)N[C@@H](CCc3cc(F)c(C(F)(F)F)c(F)c3)C(=O)N2C1 [PP0807]
- NRAS/KRAS (ratio of KD value with respect to GDP-bound NRAS wild-type protein to KD value with respect to KRAS) [1]: B (a compound having 3 or more and less than 10 is denoted as B)
- HRAS/KRAS (ratio of KD value with respect to GDP-bound HRAS wild-type protein to KD value with respect to KRAS) [2]: B (a compound having 3 or more and less than 10 is denoted as B)

SMILES: CC[C@H](C)[C@@H]1NC(=O)[C@H](CC(C)C)N(C)C(=O)C[C@@H](C(=O)N2CCOCC2)N(C)C(=O)[C@H](C2CCCC2)N(C)C(=O)C2(CCC2)NC(=O)[C@]2(C)CCCN2C(=O)[C@H](CCc2cc(F)c(C(F)(F)F)c(F)c2)NC(=O)CN(C)C(=O)[C@H](Cc2ccc(C(F)(F)F)cc2)N2CCCC[C@@H](C2=O)N(C)C(=O)CN(C)C1=O [PP0808]
- NRAS/KRAS (ratio of KD value with respect to GDP-bound NRAS wild-type protein to KD value with respect to KRAS) [1]: B (a compound having 3 or more and less than 10 is denoted as B)
- HRAS/KRAS (ratio of KD value with respect to GDP-bound HRAS wild-type protein to KD value with respect to KRAS) [2]: B (a compound having 3 or more and less than 10 is denoted as B)

SMILES: CC[C@H](C)[C@@H]1NC(=O)[C@H](CC(C)C)N(C)C(=O)C[C@@H](C(=O)N2CCOCC2)N(C)C(=O)[C@H](C2CCCC2)N(C)C(=O)C2(CCC2)NC(=O)[C@@H]2C[C@@H](C(F)(F)F)CN2C(=O)[C@H](CCc2cc(F)c(C(F)(F)F)c(F)c2)NC(=O)CN(C)C(=O)[C@H](Cc2ccc(C(F)(F)F)cc2)N2CCCC[C@@H](C2=O)N(C)C(=O)CN(C)C1=O [PP0809]
- NRAS/KRAS (ratio of KD value with respect to GDP-bound NRAS wild-type protein to KD value with respect to KRAS) [1]: B (a compound having 3 or more and less than 10 is denoted as B)
- HRAS/KRAS (ratio of KD value with respect to GDP-bound HRAS wild-type protein to KD value with respect to KRAS) [2]: B (a compound having 3 or more and less than 10 is denoted as B)

SMILES: CC[C@H](C)[C@@H]1NC(=O)[C@H](CC(C)C)N(C)C(=O)C[C@@H](C(=O)N2CCOCC2)N(C)C(=O)[C@H](C2CCCC2)N(C)C(=O)C2(CCC2)NC(=O)[C@@H]2[C@H]3C[C@H]3CN2C(=O)[C@H](CCc2cc(F)c(C(F)(F)F)c(F)c2)NC(=O)CN(C)C(=O)[C@H](Cc2ccc(C(F)(F)F)cc2)N2CCCC[C@@H](C2=O)N(C)C(=O)CN(C)C1=O [PP0810]
- NRAS/KRAS (ratio of KD value with respect to NRAS to KD value with respect to KRAS) [1]: B (a compound having 3 or more and less than 10 is denoted as B)
- HRAS/KRAS (ratio of KD value with respect to HRAS to KD value with respect to KRAS) [2]: B (a compound having 3 or more and less than 10 is denoted as B)

SMILES: CCO[C@@H]1C[C@H]2C(=O)NC3(CCC3)C(=O)N(C)[C@@H](C(CC)CC)C(=O)N(C)[C@H](C(=O)N3CCOCC3)CC(=O)N(C)[C@@H](CC(C)C)C(=O)N[C@@H]([C@@H](C)CC)C(=O)N(C)CC(=O)N(C)[C@H]3CCCCN(C3=O)[C@@H](Cc3ccc(C(F)(F)F)cc3)C(=O)N(C)CC(=O)N[C@@H](CCc3cc(F)c(C(F)(F)F)c(F)c3)C(=O)N2C1 [PP0811]
- NRAS/KRAS (ratio of KD value with respect to NRAS to KD value with respect to KRAS) [1]: B (a compound having 3 or more and less than 10 is denoted as B)
- HRAS/KRAS (ratio of KD value with respect to HRAS to KD value with respect to KRAS) [2]: B (a compound having 3 or more and less than 10 is denoted as B)

SMILES: CCOC1CC2C(=O)NC3(CCC3)C(=O)N(C)C(C(C)CC)C(=O)N(C)[C@H](C(=O)N3CCOCC3)CC(=O)N(C)[C@@H](CC(C)C)C(=O)N[C@@H]([C@@H](C)CC)C(=O)N(C)CC(=O)N(C)[C@H]3CCCCN(C3=O)[C@@H](Cc3ccc(C(F)(F)F)cc3)C(=O)N(C)CC(=O)N[C@@H](CCc3cc(F)c(C(F)(F)F)c(F)c3)C(=O)N2C1 (some centres unmarked) [PP0812]
- NRAS/KRAS (ratio of KD value with respect to NRAS to KD value with respect to KRAS) [1]: B (a compound having 3 or more and less than 10 is denoted as B)
- HRAS/KRAS (ratio of KD value with respect to HRAS to KD value with respect to KRAS) [2]: B (a compound having 3 or more and less than 10 is denoted as B)

SMILES: CCO[C@@H]1C[C@H]2C(=O)NC3(CCC3)C(=O)N(C)[C@@H](CC(F)F)C(=O)N(C)[C@H](C(=O)N3CCOCC3)CC(=O)N(C)[C@@H](CC(C)C)C(=O)N[C@@H]([C@@H](C)CC)C(=O)N(C)CC(=O)N(C)[C@H]3CCCCN(C3=O)[C@@H](Cc3ccc(C(F)(F)F)cc3)C(=O)N(C)CC(=O)N[C@@H](CCc3cc(F)c(C(F)(F)F)c(F)c3)C(=O)N2C1 [PP0813]
- NRAS/KRAS (ratio of KD value with respect to NRAS to KD value with respect to KRAS) [1]: C (A compound having a KD ratio of 0.1 or more and less than 3 is denoted as C)
- HRAS/KRAS (ratio of KD value with respect to HRAS to KD value with respect to KRAS) [2]: B (a compound having 3 or more and less than 10 is denoted as B)
